Test results taken from paper PMC5489263 (Science Advances, 2017).
Ends that are not written are not given here.

Columns and labels:
[1] = molecular target: C. glabrata mating receptor (Cg.Ste2) (Candida glabrata, UniProt Q6FLY8); experiment: cell-based
Le.Ste2 mating receptor = Le.Ste2 mating receptor (Lodderomyces elongisporus, UniProt A5E1D9); experiment: cell-based
Sequence of Le.Ste2 mating receptor (A5E1D9 entry or part of it): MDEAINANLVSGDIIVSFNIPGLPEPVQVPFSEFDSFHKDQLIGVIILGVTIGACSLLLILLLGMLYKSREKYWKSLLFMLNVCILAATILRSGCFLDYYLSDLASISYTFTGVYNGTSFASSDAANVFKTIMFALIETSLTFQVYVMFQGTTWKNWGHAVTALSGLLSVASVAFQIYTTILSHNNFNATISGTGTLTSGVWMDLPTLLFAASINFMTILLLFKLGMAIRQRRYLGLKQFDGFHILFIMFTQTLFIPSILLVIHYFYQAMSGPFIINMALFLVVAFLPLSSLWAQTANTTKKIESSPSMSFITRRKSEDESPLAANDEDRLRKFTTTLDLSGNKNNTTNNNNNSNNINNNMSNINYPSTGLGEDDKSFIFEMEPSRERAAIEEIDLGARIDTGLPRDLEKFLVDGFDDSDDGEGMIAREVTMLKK

Sequence of C. glabrata mating receptor (Cg.Ste2) (Q6FLY8 entry or part of it): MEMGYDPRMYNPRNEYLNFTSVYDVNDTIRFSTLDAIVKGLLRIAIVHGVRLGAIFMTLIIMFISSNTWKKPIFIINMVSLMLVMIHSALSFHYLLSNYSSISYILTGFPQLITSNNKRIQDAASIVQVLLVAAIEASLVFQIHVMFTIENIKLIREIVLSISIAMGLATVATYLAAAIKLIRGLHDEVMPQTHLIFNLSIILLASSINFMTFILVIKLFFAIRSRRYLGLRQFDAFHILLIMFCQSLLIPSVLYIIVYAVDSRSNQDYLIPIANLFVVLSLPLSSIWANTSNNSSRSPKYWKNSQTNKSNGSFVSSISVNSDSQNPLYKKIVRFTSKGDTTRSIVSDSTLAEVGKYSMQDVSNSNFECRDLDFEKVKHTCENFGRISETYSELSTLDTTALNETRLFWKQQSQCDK

Sequence	EC50 [1] [µM]	EC50 (Le.Ste2 mating receptor) [µM]
WHWVRLRKGQGLF [Cg – Candida glabrata]	14	
WMWTRYGRFSPV [Le – Lodderomyces elongisporus]		0.054
